Measurements as given in US10201564B2, “Methods of using inhaled nitric oxide gas for treatment of acute respiratory distress syndrome in children” (Mallinckrodt Hospital Products IP Limited, priority 2014, dated 2019).
Several values for one entry are separate records, joined by “and”; a condition that tells them apart may be missing. Identical values can stand only once. Entries after “also recorded” stand apart in the source; their conditions may differ.

How the values were obtained:
[1] = system: patients with moderately severe Acute Lung Injury (ALI); assay: Adult ALI/ARDS study: safety results (adverse events); format: in vivo, human; conditions: initial 28-day study period
Experimental: A large-scale, randomized, blinded, placebo-controlled study was carried out in the Intensive Care Units (ICUs) of 46 US hospitals to evaluate the efficacy of low-dose (5 ppm) iNO in 385 patients with moderately severe Acute Lung Injury (ALI). The primary endpoint of this study was number of days alive and off assisted breathing.
Safety results for the initial 28-day study period have been reported and are summarized briefly here. A total of 630 adverse events (AEs) were reported for patients treated with iNO versus 666 events for those who received placebo. Respiratory system AEs occurred in 51% versus 61% of patients receiving iNO and placebo, respectively, primarily due to higher frequencies of pneumonia, pneumothorax, and apnea in the placebo group. Frequency of other AEs was similar in both groups.
Patients were randomly assigned to receive either inhaled placebo gas (nitrogen) or 5 ppm of iNO (INO Therapeutics Inc., Port Allen, La.). All patients, healthcare professionals, and investigators were blinded to the assigned treatment. Inhaled NO was administered via INOvent® delivery system (Datex-Ohmeda, Madison, Wis.) that blended treatment gas (nitrogen or NO at 100-ppm balance nitrogen) 1:20 with ventilator gases to achieve a target ppm value in the inspiratory limb of the ventilator.

[2] = system: pediatric subjects with acute hypoxemic respiratory failure (AHRF); assay: Pediatric AHRF study, nitric oxide 5 ppm versus placebo: efficacy and subject outcome; format: in vivo, human
Experimental: This was a prospective, multicenter, randomized, double-blind, placebo-controlled, parallel-group study of the safety and efficacy of inhaled nitric oxide in pediatric subjects with acute hypoxemic respiratory failure (AHRF). The subjects were randomized to receive either 5 ppm inhaled nitric oxide or placebo.
Nitric Oxide for inhalation at 5 ppm was administered continuously into the inspiratory limb of the ventilator circuit in mechanically ventilated subjects using a blinded version of the INOvent® delivery system.
Subjects received 100% treatment gas (nitric oxide 5 ppm or placebo [nitrogen gas]) until Day 28 or extubation, whichever occurred first.
Placebo consisting of 100% Grade 5 nitrogen gas was administered continuously into the inspiratory limb of the ventilator circuit in mechanically ventilated subjects using a blinded version of the INOvent® delivery system at a rate equivalent to a 5 ppm dose of nitric oxide.
This was a prospective, multicenter, randomized, double-blind, placebo-controlled, Phase III study to assess the effects of nitric oxide for inhalation in the treatment of acute hypoxic respiratory failure (AHRF) in pediatric subjects. The study population consisted of male and female pediatric subjects, aged 44 weeks postconceptional age to 16 years age, who were admitted to the pediatric intensive care unit (PICU) and who required intubation because of AHRF. The inclusion/exclusion criteria are described in the Patients section below.
Standardized ventilatory management and weaning procedures were used. Ventilatory management was used based on an “open lung approach” using positive end-expiratory pressure (PEEP) to increase lung volume and limiting tidal volumes to reduce plateau pressures. Subjects received nitric oxide for inhalation at 5 ppm or placebo (100% Grade 5 nitrogen gas) into the inspiratory limb of the ventilator circuit using a blinded version of the INOvent® delivery system. The subjects were treated until Day 28 or extubation, whichever occurred first. Subjects were assessed daily using a spontaneous breathing trial, according to the institution's standard of care. Arterial blood gases (ABG), ventilator settings, methemoglobin, oxygenation index, systolic blood pressure, diastolic blood pressure, Pediatric Risk of Mortality (PRISM) III score, and subject positioning (prone or supine) were performed/recorded at specified times during the study. Selected centers also performed plasma cytokine assays, bronchoalveolar lavage fluid (BALF) assays, and a 6-month follow-up assessment.
Inclusion criteria for patients were as follows: • 1. 44 weeks post-conceptional age to 16 years of age • 2. Oxygenation Index (OI)≥12 cm H2O/mmHg (as determined by two separate measurements taken 30 minutes to 4 hours apart) • 3. Recent chest x-ray (within 24 hours) showing at least unilateral infiltrates • 4. Mechanically ventilated (oral or nasopharyngeal)<7 days
Exclusion criteria for patients were as follows: • 1. Immunocompromised • 2. Received a bone marrow transplant • 3. Active oncological condition • 4. Persistent right to left intracardiac shunt • 5. Cardiovascular surgery within the last 14 days • 6. Status asthmaticus • 7. Decision by primary care physician not to provide full support (futility) • 8. Received treatment with nitric oxide for inhalation or other investigational medications with 24 hours prior to study initiation. • 9. Chronically ventilated • 10. Pregnant Study Design and Schedule of Assessments:
Extubation was considered when: • i. Pressure support of <10 cm H2O • ii. FiO2<0.60 • iii. PEEP<6 cm H2O • iv. Nitric oxide has been discontinued for 30 minutes
Extubation occurred within 12 hours of meeting the above criteria. If a patient met the above criteria but was not extubated within 12 hours, the reason (i.e. airway protection, surgery, secretions clearance, etc.) was documented.

[3] = 5 ppm, discharge evaluation, N 26
[4] = 5 ppm, in words, approached statistical significance

SMILES: [N]=O [Nitric Oxide, nitric oxide]
- Frequency of other (non-respiratory) AEs versus placebo [1]: similar
- Respiratory system AEs, patients ([1]; placebo 61%): 51%
- adverse events (AEs) reported, total ([1]; placebo 666): 630
- completed 28 days of the study or successfully extubated ([2]; 5 ppm): 21 (80.8%) n (%)
- Days on supplemental O2, Median ([2]; 5 ppm, N 10): 18.1 days
- Number of days on supplemental O2, Mean (SD) ([2]; 5 ppm, N 10): 19.6 (13.4) ^ days and 19.6 (13.4) days
- Days originally intubated, Median ([2]; 5 ppm, N 20): 13.7 days
- Number of days originally intubated, Mean (SD) ([2]; 5 ppm, N 20): 13.6 (6.8) ^ days and 13.6 (6.8) days
- Days in PICU, Median ([2]; 5 ppm, N 22): 17.3 days
- Number of days in PICU, Mean (SD) ([2]; 5 ppm, N 22): 17.8 (8.3) ^ days and 17.8 (8.3) days
- Clinical sepsis [2, 3]: 4 (15.4%) n (%)
- Died (cause of death related to pulmonary condition) [2, 3]: 0 (0) ^ n (%)
- ECMO at any time during treatment [2, 3]: 0 (0) ^ n (%)
- HFOV at any time during treatment [2, 3]: 11 (42.3%) n (%)
- Intubated on Day 28 [2, 3]: 2 (7.7%) n (%)
- Pneumothorax [2, 3]: 3 (11.5%) n (%)
- Receiving supplemental O2 on Day 28 [2, 3]: 11 (42.3%) n (%)
- Survival [2, 3]: 23 (88.5%) n (%)
- VAP (ventilator-associated pneumonia) [2, 3]: 5 (19.2%) n (%)
- days in the PICU versus placebo ([2]; 5 ppm, in words): lower
- duration (mean number of days) of supplemental oxygen versus placebo ([2]; 5 ppm, in words): higher
- frequency of extracorporeal membrane oxygenation versus placebo ([2]; 5 ppm, in words): lower
- frequency of high frequency oscillatory ventilation versus placebo ([2]; 5 ppm, in words): lower
- frequency of pneumothorax versus placebo ([2]; 5 ppm, in words): lower
- frequency of ventilator-associated pneumonia at discharge versus placebo ([2]; 5 ppm, in words): higher
- mean duration (number of days) of intubation versus placebo ([2]; 5 ppm, in words): lower
- duration of mechanical ventilation (MV) [2, 4]: shortened
- rate of survival [2, 4]: improved
- rate of ECMO free survival versus placebo ([2]; 5 ppm, in words, listed as iNO): significantly greater; also recorded: significantly higher
- Day 28 (completed 28 days) ([2]; 5 ppm, n = 26, subject outcome): 1 (3.8%) n (%)
- Death ([2]; 5 ppm, n = 26, subject outcome): 2 (7.7%) n (%)
- Successful extubation ([2]; 5 ppm, n = 26, subject outcome): 20 (76.9%) n (%)
- Total discontinued ([2]; 5 ppm, n = 26, subject outcome): 5 (19.2%) n (%)
- rate of ECMO free survival ([2]; 5 ppm, placebo 15 of 29, p<0.01): 22 of 24
- Survival at 28 days ([2]; 5 ppm, placebo 21 of 29, p=0.07): 22 of 24
- survival rate ([2]; 5 ppm, placebo 72.4%): 88.5%
- oxygenation index (OI) ([2]; 4 hours, 5 ppm, placebo 26.1+/−19.5, p=0.09): 14.3+/−5.9
- oxygenation index (OI) ([2]; 12 hours, 5 ppm, placebo 24.5+/−22.0, p=0.04): 14.7+/−6.0
- oxygenation index (OI) ([2]; 24 hours, 5 ppm, placebo 16.7+/−9.9, p=0.53): 15.2+/−10.8
- number of days that a child is ventilator-free at 28 days after the start of iNO therapy ([2]; in words): increased
